Laboratory results as given in ChEMBL document CHEMBL1137619, “Synthesis, structure-activity relationship and in vivo antiinflammatory efficacy of substituted dipiperidines as CCR2 antagonists” (J Med Chem, 2007).

Experiments:
Format in all cases: ADME, organism-based
Conditions in all cases: in vivo
[1] = Half life in rat at 10 mg/kg, po; parameters: dose 10 mg/kg, route oral
[2] = Bioavailability in rat at 10 mg/kg, ip
[3] = Bioavailability in rat at 10 mg/kg, po

- half-life [1]: 7 h
- bioavailability [2]: 100%
- bioavailability [3]: 15%
SMILES: O=C(O)[C@H](C1CCN(C(=O)/C=C/c2cc(F)c(F)c(F)c2)CC1)N1CCC(c2c[nH]c3ccccc23)CC1
